The source of these data is US20050002885A1, “Topical compositions and methods for treating pseudofolliculitis barbae and ingrown hair” (priority 1993, published 2005).

For series [1] the following is noted: cited from earlier work.
A short description of series [2]: saturation concentration of acetylsalicylic acid in the solvent mixture. It is filed as physicochemical. The settings on record: solvent mixture: propylene glycol about 10 percent by volume, glycerine about 2 percent by volume, balance isopropyl alcohol/water with isopropyl alcohol about 70 percent by volume.

Take `CC(=O)Oc1ccccc1C(=O)O` [acetylsalicylic acid]: in series [1], the “solubility in water or water based substances” value is recorded as “virtually insoluble”. Moreover, in series [2], the “saturation concentration of the acetylsalicylic acid in this solvent mixture” value is on record as “about 18 percent by weight per unit volume”.
